The text below walks through data of patent publication US11413348B2, “Low molecular weight cationic lipids for oligonucleotide delivery” (SIRNA THERAPEUTICS, INC., priority 2010, dated 2022).

SMILES strings stand for the structures.

One assay concerns CTNNB1 mRNA. Briefly: Rhesus monkey in vivo evaluation of β-catenin efficacy (liver CTNNB1 mRNA). The settings on record: beta-catenin siRNA, doses ranging from 0.67-3.34 mg/m^2, intravenous bolus, FIG. 5. As for the experimental part: On study day −7 predose liver biopsy samples (˜0.5-1 gram/sample) were collected from male rhesus monkeys by laparoscopic surgical resection (resection of one biopsy sample from outer edge of one randomly selected liver lobe per monkey). A 5 mm tissue punch was used to sample three non-adjacent ˜50 mg samples from each predose biopsy. Samples were preserved in RNAlater™ (Ambion) for later CTNNB1 mRNA analysis.
On study day 0 monkeys were administered suspensions of the lipid nanoparticle (LNP) test articles in phosphate buffered saline (0.05-0.1 mg siRNA/mL) via single-dose intravenous bolus injection at target doses of 0.67, 1.34 or 3.34 mg siRNA/m^2. […]
CTNNB1 mRNA levels were measured by relative quantitative RT-PCR using a primer/probe set validated for CTNNB1 and normalized against mRNA levels of peptidylprolyl isomerase B (also known as PPIB or cyclophilin B) and RNA levels of 18S ribosomal RNA (18S rRNA). Change in CTNNB1 mRNA liver expression was measured as the difference in PCR threshold cycle number (ΔΔCt) between post-dose samples and each corresponding monkey's predose liver samples.
Calculation of CTNNB1 mRNA knockdown (with respect to pretreatment levels) was calculated from ΔΔCt using the following relationship: mRNA (% knockdown)=100−(100/2^−ΔΔCt)

The next assay concerns the target T1, ApoE (Macaca mulatta, UniProt Q28502).
T1 construct: from tissue; host or cells: rhesus serum
Briefly: In vitro ApoE binding assay (anti-PEG capture, ApoE ELISA, stem-loop RT-PCR). The settings on record: LNP 4 ug/mL in 90% rhesus serum, 37° C., 20 minutes; estimate of 500 siRNA per LNP. As for the experimental part:
LNPs are incubated at 37° C. in 90% rhesus serum at a final LNP concentration of 4 ug/mL. Incubation is for 20 minutes with orbital rotation. After incubation, the samples are diluted 1:20 in PBS and 100 uL of each diluted sample is aliquoted to wells of an anti-PEG antibody coated 96-well plate (Life Diagnostics Cat. No. P-0001PL. After incubation at room temperature for 1 hour, the plate is washed 5× with 300 uL PBS. After washing, 50 uL of 0.2% Triton X-100 is added to each well and the plate incubated at 37° C. for 10 minutes, followed by shaking on a plate shaker for 1 minute at 750 rpm. Samples are frozen prior to performing the ApoE ELISA and stem loop PCR analysis of samples.
An ApoE ELISA assay is performed to quantitate ApoE bound to the LNPs after incubation in rhesus serum. Anti-ApoE antibody (Milipore, Cat No. AB947) is diluted 1:1000 in PBS and 100 uL of diluted antibody is added to each well of a polystyrene high binding plate. The plate with antibody is incubated overnight at 4° C., after which the plate is washed 2× with 200 uL of PBS. Next, 200 uL of buffer containing 1% BSA and 0.05% Tween-20 in PBS (Incubation Buffer) is added to each well followed by incubation at room temperature for 1 hour. Plates are washed 5× with PBS containing 0.05% Tween-20. Frozen Triton lysis test samples are thawed and diluted 1:6 with incubation buffer and 100 uL of test sample is aliquoted to wells of the ApoE antibody plate. Incubation is for 1 hour at room temperature followed by a 5× wash with PBS containing 0.05% Tween-20. After washing, 100 uL of biotinylated anti-ApoE antibody (Mabtech, Cat. ANo. E887-biotin), diluted 1:500 in incubation buffer, is added to each well and incubated for 1 hour at room temperature, followed by a 5× wash with 0.05% Tween-20 in PBS. 100 uL per well, of Streptavidin-HPR (Thermo, Cat. No. TS-125-HR), is then added and incubated for 1 hour at room temperature. After washing 5× with 0.05% Tween-20 in PBS, 100 uL of TMB Substrate (Thermo, Cat. No. 34028) is added to each well, followed by incubation at room temperature for 20 minutes in the dark. The calorimetric reaction is slopped with 100 uL of TMB Stop Solution (KPL, Cat. No. 50-85-04) and absorbance at 450 nm is determined. An ApoE standard curve is prepared by diluting rhesus Recombinant ApoE in incubation buffer with 0.03% Triton X-100 with concentrations ranging from 100 ng/mL to 0.78 ng/mL. ApoE standards are evaluated in the ELISA in parallel to the test samples. A rhesus serum only (no LNP) control is utilized to obtain a background subtraction for non-LNP dependent ApoE signal in the ELISA.
To normalize to the ApoE bound to the amount of LNP bound to the anti-PEG antibody plate, the amount of siRNA retained in the anti-PEG antibody well is quantitated by stem-loop PCR and related to the number of siRNAs encapsulated per LNP, to give an approximate measure of total LNP particles bound per well.
The standard curve is prepared using the molecular weight of the siRNA (13693 g/mol for ApoB 17063) to calculate the copy number. The high standard should contain 10^11 copies per 3 μl. A 10-fold serial dilution is performed across a row of an assay plate until the lowest standard contains 10^2 copies per 3 μl. Dilute 0.2% Triton X-100 1:80 in water and pipette 20 uL of the diluted Triton X-100 into 10 wells of a 96 well plate. 30 uL of the serial diluted standard curve and mix are added to each well of the plate. 10 uL of the spiked standard curve is used in the reverse transcription reaction.
Triton lysates from the PEG antibody plate capture are diluted 1 to 2000 in nuclease free water. 10 uL of ‘RT-Primer Mix’ (Applied Biosystem's TaqMan MicroRNA Reverse Transcription Kit Cat. No. 4366596) is added to each well of a 96-well Micro-Amp QPCR plate (ABI Cat #N801-0560).
[…] of each test sample (diluted 1 to 2000) or spiked standard curve (above) are aliquoted into the 96-well plate. […]

T1 sequence (Q28502 19-295): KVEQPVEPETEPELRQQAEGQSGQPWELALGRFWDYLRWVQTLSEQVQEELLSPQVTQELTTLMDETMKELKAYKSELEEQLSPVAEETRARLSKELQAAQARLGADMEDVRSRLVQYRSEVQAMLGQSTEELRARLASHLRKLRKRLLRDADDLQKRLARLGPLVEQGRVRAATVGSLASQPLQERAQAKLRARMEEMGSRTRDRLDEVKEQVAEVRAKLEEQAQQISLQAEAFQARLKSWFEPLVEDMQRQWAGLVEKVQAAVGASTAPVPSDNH

For the compound `CCCCC/C=C\C/C=C\CCCCCCCCCC(CCCCCCCCC)CCN(C)C` (stereo not shown) [Compound 32, (13Z,16Z)—N,N-dimethyl-3-nonyldocosa-13,16-dien-1-amine], the “CTNNB1 mRNA knockdown in liver” value with CTNNB1 mRNA was “robust KD”. Further, the “ApoE Molecules/LNP” value at ApoE is given as 12.8 Molecules/LNP.
In the case of `CCCCCCCCCC(CCCCCCCC1CC1CCCCCCCC)N(C)C` [Compound 33, N,N-dimethyl-1-[(1S,2R)-2-octylcyclopropyl]hepladecan-8-amine], the “CTNNB1 mRNA knockdown in liver” value with CTNNB1 mRNA is recorded as “robust KD”. Also, at ApoE, the “ApoE Molecules/LNP” value was 18.1 Molecules/LNP.
